Here are results for 23 molecules from patent US20110178104A1, “Anti-Heparin Compounds” (POLYMEDIX INC., priority 2010, published 2011).

For one assay, the system named is fondaparinux (FONDAPX). Nature of the assay: FXa chromogenic assay (absence of plasma), fondaparinux. Conditions: fondaparinux 0.02 μg/mL, absence of plasma.
The next assay has as its system enoxaparin (ENOX). Nature of the assay: FXa chromogenic assay (absence of plasma), enoxaparin. The note with it: enoxaparin 0.1 μg/mL, absence of plasma.
Assay [1] relates to unfractionated heparin (UFH). Nature of the assay: aPTT clotting assay, UFH 0.2 U/mL in plasma (Example 7). The class given is biochemical. Conditions: UFH 0.2 U/mL in plasma. How it is done:
aPTT clotting Assay. Unfractionated heparin was mixed with plasma at a final concentration of 0.2 U/mL. […] The ACL Elite Hemostasis analyzer (Beckman Coulter™) was used to add aPTT reagent (HemosIL SynthASil) to supplemented plasma. Clotting was initiated by addition of CaCl2 and time to clot was recorded.

Starred links: 1 amine or outer side, 2 acyl side, 3 side chain; linkers in the order of their positions; H or OH if unused. Non-standard residues stand in square brackets, D forms with d. Residues, ends and D or L forms follow the SMILES beside them. *: point of attachment. NH(3-CONH2-4-OMe-phenyl) = COc1ccc(N*)cc1C(N)=O; 3Abz(6-OMe) = COc1ccc(N[*:1])cc1C(=O)[*:2] A value given as a limit tells only on which side of the number the result lay.

As to `COc1ccc(NC(=O)[C@@H](CCCNC(=N)N)NC(=O)c2cc(NC(=O)[C@@H](CCCNC(=N)N)NC(=O)c3cc(NC(=O)[C@H](C)NC(=O)[C@@H](CCCNC(=N)N)NC(=O)c4cc(NC(=O)[C@H](N)CCCNC(=N)N)ccc4OC)ccc3OC)ccc2OC)cc1C(N)=O` [Compound 73] (H-[dR][3Abz(6-OMe)][dR]A[3Abz(6-OMe)][dR][3Abz(6-OMe)][dR]-{NH(3-CONH2-4-OMe-phenyl)}), the “FONDAPX (FXa) EC50” value in the assay on fondaparinux (FONDAPX) amounted to 17.92 µg/mL. Moreover, in the assay on enoxaparin (ENOX), the “ENOX (FXa) EC50” value was found to be 2.49 µg/mL. In addition, in assay [1], the “UFH (aPTT) EC50” value stood at 5.16 µg/mL.
Take `COc1ccc(NC(=O)[C@@H](CCCNC(=N)N)NC(=O)c2cc(NC(=O)[C@@H](CCCNC(=N)N)NC(=O)[C@H](C)NC(=O)c3cc(NC(=O)[C@@H](CCCNC(=N)N)NC(=O)c4cc(NC(=O)[C@H](N)CCCNC(=N)N)ccc4OC)ccc3OC)ccc2OC)cc1C(N)=O` [Compound 74] (H-[dR][3Abz(6-OMe)][dR][3Abz(6-OMe)]A[dR][3Abz(6-OMe)][dR]-{NH(3-CONH2-4-OMe-phenyl)}): in the assay with fondaparinux (FONDAPX), the “FONDAPX (FXa) EC50” value is 47.76 µg/mL. Also, the “ENOX (FXa) EC50” value in the assay on enoxaparin (ENOX) came to 5.13 µg/mL. Also, in assay [1], the “UFH (aPTT) EC50” value came out at 5.20 µg/mL.
`COc1ccc(NC(=O)[C@@H](CCCNC(=N)N)NC(=O)c2cc(NC(=O)[C@H](C)NC(=O)[C@@H](CCCNC(=N)N)NC(=O)c3cc(NC(=O)[C@@H](CCCNC(=N)N)NC(=O)c4cc(NC(=O)[C@H](N)CCCNC(=N)N)ccc4OC)ccc3OC)ccc2OC)cc1C(N)=O` [Compound 75] (H-[dR][3Abz(6-OMe)][dR][3Abz(6-OMe)][dR]A[3Abz(6-OMe)][dR]-{NH(3-CONH2-4-OMe-phenyl)}): the “FONDAPX (FXa) EC50” value in the assay with fondaparinux (FONDAPX) was determined as 44.99 µg/mL. In addition, in the assay on enoxaparin (ENOX), the “ENOX (FXa) EC50” value was 3.71 µg/mL. For the same molecule, the “UFH (aPTT) EC50” value in assay [1] amounted to 4.80 µg/mL.
For the molecule `COc1ccc(NC(=O)[C@H](CCCCN)NC(=O)c2cc(NC(=O)[C@H](C)NC(=O)c3cc(NC(=O)[C@H](CCCCN)NC(=O)c4cc(NC(=O)[C@@H](N)CCCCN)ccc4OC)ccc3OC)ccc2OC)cc1C(N)=O` [Compound 76], the “FONDAPX (FXa) EC50” value with fondaparinux (FONDAPX) was determined as 10.50 µg/mL. Besides, the “ENOX (FXa) EC50” value in the assay on enoxaparin (ENOX) is 1.49 µg/mL. For the same molecule, the “UFH (aPTT) EC50” value in assay [1] is 6.00 µg/mL.
The corresponding values for `COc1ccc(NC(=O)[C@H](CCCCN)NC(=O)c2cc(NC(=O)[C@H](CCCCN)NC(=O)c3cc(NC(=O)[C@H](C)NC(=O)c4cc(NC(=O)[C@@H](N)CCCCN)ccc4OC)ccc3OC)ccc2OC)cc1C(N)=O` [Compound 77] are 2.47 µg/mL, 0.61 µg/mL and 4.55 µg/mL.
`COc1ccc(NC(=O)[C@H](CCCNC(=N)N)NC(=O)c2cc(NC(=O)[C@H](CCCCN)NC(=O)c3cc(NC(=O)[C@H](CCCCN)NC(=O)c4cc(NC(=O)[C@@H](N)CCCCN)ccc4OC)ccc3OC)ccc2OC)cc1C(N)=O` [Compound 78]: the “FONDAPX (FXa) EC50” value in the assay with fondaparinux (FONDAPX) is 6.28 µg/mL. For the same molecule, in the assay with enoxaparin (ENOX), the “ENOX (FXa) EC50” value worked out at 0.49 µg/mL. Besides, the “UFH (aPTT) EC50” value in assay [1] came out at 2.99 µg/mL.
For the molecule `COc1ccc(NC(=O)[C@H](CCCCN)NC(=O)c2cc(NC(=O)[C@H](CCCNC(=N)N)NC(=O)c3cc(NC(=O)[C@H](CCCCN)NC(=O)c4cc(NC(=O)[C@@H](N)CCCCN)ccc4OC)ccc3OC)ccc2OC)cc1C(N)=O` [Compound 79], the “FONDAPX (FXa) EC50” value in the assay on fondaparinux (FONDAPX) was determined as 7.07 µg/mL. In addition, the “ENOX (FXa) EC50” value in the assay with enoxaparin (ENOX) came to 0.41 µg/mL. Besides, the “UFH (aPTT) EC50” value in assay [1] worked out at 3.02 µg/mL.
With `COc1ccc(NC(=O)[C@H](CCCCN)NC(=O)c2cc(NC(=O)[C@H](CCCCN)NC(=O)c3cc(NC(=O)[C@H](CCCNC(=N)N)NC(=O)c4cc(NC(=O)[C@@H](N)CCCCN)ccc4OC)ccc3OC)ccc2OC)cc1C(N)=O` [Compound 80], in the assay with fondaparinux (FONDAPX), the “FONDAPX (FXa) EC50” value was determined as 4.34 µg/mL. In addition, the “ENOX (FXa) EC50” value in the assay on enoxaparin (ENOX) turned out to be 0.35 µg/mL. In addition, the “UFH (aPTT) EC50” value in assay [1] was “inactive”.
The corresponding values for `COc1ccc(NC(=O)[C@H](CCCCN)NC(=O)c2cc(NC(=O)[C@H](CCCCN)NC(=O)c3cc(NC(=O)[C@H](CCCCN)NC(=O)c4cc(NC(=O)[C@@H](N)CCCNC(=N)N)ccc4OC)ccc3OC)ccc2OC)cc1C(N)=O` [Compound 81] are 3.23 µg/mL, 0.26 µg/mL and 1.97 µg/mL.
Taken in the same sequence, the figures for `COc1ccc(NC(=O)[C@@H](CCCNC(=N)N)NC(=O)c2cc(NC(=O)[C@@H](CCCNC(=N)N)NC(=O)c3cc(NC(=O)[C@H](CCCNC(N)=O)NC(=O)c4cc(NC(=O)[C@H](N)CCCNC(=N)N)ccc4OC)ccc3OC)ccc2OC)cc1C(N)=O` [Compound 83] were 14.79 µg/mL, 1.02 µg/mL and 4.73 µg/mL.
The corresponding values for `COc1ccc(NC(=O)[C@@H](Cc2c[nH]c3ccccc23)NC(=O)c2cc(NC(=O)[C@@H](CCCNC(=N)N)NC(=O)c3cc(NC(=O)[C@@H](CCCNC(=N)N)NC(=O)c4cc(NC(=O)[C@H](N)CCCNC(=N)N)ccc4OC)ccc3OC)ccc2OC)cc1C(N)=O` [Compound 84] are 1.99 µg/mL, 0.32 µg/mL and 3.09 µg/mL.
In the case of `N=C(N)NCCCCC(=O)Nc1cc(C(F)(F)F)cc(NC(=O)c2ccc(C(=O)Nc3cc(C(F)(F)F)cc(NC(=O)CCCCNC(=N)N)c3SCCN)cc2)c1SCCN` [Compound 87], the “FONDAPX (FXa) EC50” value in the assay with fondaparinux (FONDAPX) is 15.91 µg/mL. For the same molecule, the “ENOX (FXa) EC50” value in the assay on enoxaparin (ENOX) stood at 6.35 µg/mL. In addition, the “UFH (aPTT) EC50” value in assay [1] was greater than 10 µg/mL.
The corresponding values for `COc1cc(C(=O)Nc2cc(C(F)(F)F)cc(NC(=O)CCCCNC(=N)N)c2SCCN)c(OC)cc1C(=O)Nc1cc(C(F)(F)F)cc(NC(=O)CCCCNC(=N)N)c1SCCN` [Compound 88] are 1.38 µg/mL, 0.24 µg/mL and 4.30 µg/mL.
As for `COc1ccc(NC(=O)[C@H](CCCCN)NC(=O)c2cc(NC(=O)[C@H](CCCCN)NC(=O)c3cc(NC(=O)[C@H](CCCCN)NC(=O)c4cc(NC(=O)[C@@H](N)CCCCN)ccc4OC)ccc3OC)ccc2OC)cc1C(N)=O` [Compound 90], the “FONDAPX (FXa) EC50” value in the assay with fondaparinux (FONDAPX) stood at 0.272 µg/mL. Also, the “ENOX (FXa) EC50” value in the assay on enoxaparin (ENOX) was determined as 0.093 µg/mL. Further, the “UFH (aPTT) EC50” value in assay [1] was found to be 0.9713 µg/mL.
Consider `COc1ccc(NC(=O)[C@H](CCCCN)NC(=O)c2cc(NC(=O)[C@H](CCCCN)NC(=O)c3cc(NC(=O)[C@H](CCCCN)NC(=O)c4cccc(NC(=O)[C@@H](N)CCCCN)c4)ccc3OC)ccc2OC)cc1C(N)=O` [Compound 91], for which the “FONDAPX (FXa) EC50” value in the assay on fondaparinux (FONDAPX) turned out to be 13.11 µg/mL. Also, the “ENOX (FXa) EC50” value with enoxaparin (ENOX) is 0.58 µg/mL. The “UFH (aPTT) EC50” value in assay [1] is 2.03 µg/mL.
Taken in the same sequence, the figures for `COc1ccc(NC(=O)[C@H](CCCNC(=N)N)NC(=O)c2cc(NC(=O)[C@H](CCCNC(=N)N)NC(=O)c3cc(NC(=O)[C@H](CCCNC(=N)N)NC(=O)c4cc(NC(=O)[C@H](C)NC(=O)CCCCNC(=N)N)ccc4OC)ccc3OC)ccc2OC)cc1C(N)=O` [Compound 92] were 1.40 µg/mL, 0.55 µg/mL and 7.17 µg/mL.
Take `COc1ccc(NC(=O)[C@@H](CCCNC(=N)N)NC(=O)c2cc(NC(=O)[C@@H](CCCNC(=N)N)NC(=O)c3cc(NC(=O)[C@@H](CCCNC(=N)N)NC(=O)c4cc(NC(C)=O)ccc4OC)ccc3OC)ccc2OC)cc1C(N)=O` [Compound 93]: in the assay on fondaparinux (FONDAPX), the “FONDAPX (FXa) EC50” value came to 0.42 µg/mL. Also, the “ENOX (FXa) EC50” value in the assay on enoxaparin (ENOX) is 0.38 µg/mL. Besides, the “UFH (aPTT) EC50” value in assay [1] was determined as 2.28 µg/mL.
Taken in the same sequence, the figures for `COc1ccc(NC(=O)[C@H](C)NC(=O)c2cc(NC(=O)[C@H](CCCCN)NC(=O)c3cc(NC(=O)[C@H](CCCCN)NC(=O)c4cc(NC(=O)[C@@H](N)CCCCN)ccc4OC)ccc3OC)ccc2OC)cc1C(N)=O` [Compound 94] were greater than 20 µg/mL, 1.32 µg/mL and 4.94 µg/mL.
Regarding `COc1ccc(NC(=O)[C@H](CCCCN)NC(=O)c2cc(NC(=O)[C@H](CCCCN)NC(=O)c3cc(NC(=O)[C@H](CCCCN)NC(=O)c4cc(NC(=O)[C@H](C)N)ccc4OC)ccc3OC)ccc2OC)cc1C(N)=O` [Compound 95], in the assay on fondaparinux (FONDAPX), the “FONDAPX (FXa) EC50” value was 5.277 µg/mL. Further, the “ENOX (FXa) EC50” value in the assay with enoxaparin (ENOX) was determined as 0.5734 µg/mL. The “UFH (aPTT) EC50” value in assay [1] worked out at 2.42 µg/mL.
Taken in the same sequence, the figures for `COc1ccc(NC(=O)[C@H](CCCCN)NC(=O)c2cc(NC(=O)[C@H](CCCCN)NC(=O)c3cc(NC(=O)[C@H](CCCCN)NC(=O)c4cc(NC(=O)[C@@H](N)CCCCN)ccc4OC)ccc3OC)ccc2OC)cc1C(=O)O` [Compound 96] were “inactive”, 5.567 µg/mL and 3.59 µg/mL.
Regarding `CSc1ccc(NC(=O)[C@H](CCCNC(=N)N)NC(=O)c2cc(NC(=O)[C@H](CCCNC(=N)N)NC(=O)c3cc(NC(=O)[C@H](CCCNC(=N)N)NC(=O)c4cc(NC(=O)[C@@H](N)CCCNC(=N)N)ccc4SC)ccc3SC)ccc2SC)cc1C(N)=O` [Compound 97], the “FONDAPX (FXa) EC50” value in the assay with fondaparinux (FONDAPX) is greater than 20 µg/mL. Also, the “ENOX (FXa) EC50” value with enoxaparin (ENOX) came to 0.9842 µg/mL. In addition, the “UFH (aPTT) EC50” value in assay [1] was greater than 10 µg/mL.
For `COc1ccc(NC(=O)[C@H](CCCCCN)NC(=O)c2cc(NC(=O)[C@H](CCCCCN)NC(=O)c3cc(NC(=O)[C@H](CCCCCN)NC(=O)c4cc(NC(=O)[C@@H](N)CCCCCN)ccc4OC)ccc3OC)ccc2OC)cc1C(N)=O` [Compound 98], the “FONDAPX (FXa) EC50” value with fondaparinux (FONDAPX) was “inactive”. Further, the “ENOX (FXa) EC50” value in the assay with enoxaparin (ENOX) worked out at 0.1731 µg/mL. In addition, in assay [1], the “UFH (aPTT) EC50” value came to 3.14 µg/mL.
The corresponding values for `COc1ccc(C(=O)N[C@@H](CCCCN)C(=O)Nc2ccc(OC)c(C(=O)N[C@@H](CCCCN)C(=O)Nc3ccc(OC)c(C(=O)N[C@@H](CCCCN)C(=O)Nc4ccc(OC)c(C(N)=O)c4)c3)c2)cc1NC(=O)[C@@H](N)CCCCN` [Compound 99] are 6.132 µg/mL, 0.2998 µg/mL and 1.54 µg/mL.
